{
  "source": "patent US7494998B2",
  "about": "“Benzisoxazole piperazine compounds and methods of use thereof” (Hypnion, Inc., priority 2005, dated 2009)",
  "key": {"[1]": {"target": "T1, human recombinant M1 expressed in CHO cells (Homo sapiens, UniProt P11229)", "T1 construct": "expressed in transfected cells; host or cells: CHO cells", "T1 sequence (P11229 1-460)": "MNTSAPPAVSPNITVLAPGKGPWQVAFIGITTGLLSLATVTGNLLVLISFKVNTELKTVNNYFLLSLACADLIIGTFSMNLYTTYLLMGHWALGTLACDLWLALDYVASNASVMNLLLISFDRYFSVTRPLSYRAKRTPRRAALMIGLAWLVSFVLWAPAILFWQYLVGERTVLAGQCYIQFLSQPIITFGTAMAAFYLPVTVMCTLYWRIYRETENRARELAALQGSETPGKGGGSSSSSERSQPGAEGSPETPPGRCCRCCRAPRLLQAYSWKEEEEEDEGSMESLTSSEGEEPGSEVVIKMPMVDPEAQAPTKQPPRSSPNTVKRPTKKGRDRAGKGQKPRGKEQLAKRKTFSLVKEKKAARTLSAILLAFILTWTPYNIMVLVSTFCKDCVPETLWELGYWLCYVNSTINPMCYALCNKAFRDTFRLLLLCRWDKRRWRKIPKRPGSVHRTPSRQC", "settings": "reference compounds of the M1 assay; read-out: Ki (M1 binding assay, reference compounds); cited from earlier work"}, "male Wistar rats": {"tested_on": "male Wistar rats", "experiment": "Sleep-wakefulness monitoring (EEG/EMG, SCORE-2004) in rats after oral treatment at CT-18", "assay_type": "in vivo, rat", "settings": "for MAXIMUM NREM SLEEP CUMULATION 3 mg/kg / LONGEST UNINTERRUPTED SLEEP BOUT 3 mg/kg: 3 mg/kg oral at CT-18; for MAXIMUM NREM SLEEP CUMULATION 10 mg/kg / LONGEST UNINTERRUPTED SLEEP BOUT 10 mg/kg: 10 mg/kg oral at CT-18; for MAXIMUM NREM SLEEP CUMULATION 30 mg/kg / LONGEST UNINTERRUPTED SLEEP BOUT 30 mg/kg: 30 mg/kg oral at CT-18", "protocol": "Sleep-wakefulness, locomotor activity and body temperature are monitored in male Wistar rats treated with a test compound (i.e., benzisoxazole analog) initially at a concentration of 10 mg/kg. Higher and lower doses are assayed for select compounds (e.g., as high as 45 mg/kg, and as low as necessary to establish a no-effect dose). Treatments are administered at CT-18, the peak of the activity dominated period (6 hours after lights-off), and produced soporific (sleep-inducing) effects characterized by increased non-REM sleep time, increased sleep continuity, but without evidence of REM sleep inhibition or rebound insomnia.\nSleep-wakefulness, locomotor activity and body temperature were monitored in vivo with various compounds of the invention. Adult, male Wistar rats (250 g at time of surgery, Charles River Laboratories, Wilmington Mass.) were anesthetized (2% isoflourane in medical grade oxygen) and surgically prepared with a cranial implant to permit chronic electro-encephalogram (EEG) and electromyogram (EMG) recording. Body temperature and locomotor activity were monitored via a miniature transmitter (Mini-Mitter, Bend, Oreg.) surgically placed in the abdomen. The cranial implant consisted of stainless steel screws (two frontal [+3.2 AP from bregma, ±2.0 ML] and two occipital [−6.9 AP, ±5.5 ML]) for EEG recording. Two Teflon®-coated stainless steel wires were positioned under the nuchal trapezoid muscles for EMG recording. All leads were soldered to a miniature connector prior to surgery, and gas sterilized in ethylene oxide. The implant assembly was affixed to the skull with dental acrylic. A minimum of three weeks was allowed for surgical recovery.\nEach rat was permanently housed in its own individual recording cage located within separate, ventilated compartments of custom-designed stainless steel cabinets. Each cage was enhanced with a filter-top riser and low-torque swivel-commutator. Food and water were available ad libitum. A 24-hr light-dark cycle (12 hours light, 12 hours dark) was maintained throughout the study. Animals were undisturbed for at least 48 hours before and after treatments.\nSleep and wakefulness were determined using “SCORE-2004™” (Hypnion, Worcester, Mass.)—an internet-based sleep-wake and physiological monitoring system. The system monitored amplified EEG (bandpass 1-30 Hz), integrated EMG (bandpass 10-100 Hz), body temperature and non-specific locomotor activity (LMA) via telemetry, and drinking activity, continuously and simultaneously. Arousal states were classified on-line as non-REM (NREM) sleep, REM sleep, wake, or theta-dominated wake every 10 seconds. Total drinking and locomotor activity counts, and body temperature were quantitiated and recorded each minute, using EEG feature extraction and pattern-matching algorithms. […] The classification algorithm used individually-taught EEG-arousal-state templates, plus EMG criteria to differentiate REM sleep from theta-dominated wakefulness, plus behavior-dependent contextual rules (e.g., if the animal was drinking, it is awake). Drinking and locomotor activity intensity (LMA) were recorded every 10 seconds, while body temperature was recorded each minute. Locomotor activity was detected by a telemetry receiver (Mini-Mitter) beneath the cage. Telemetry measures (LMA and body temperature) were not part of the scoring algorithm; thus, sleep-scoring and telemetry data were independent measures.\nCompounds were administered at CT-18, the peak of the activity-dominated period, sufficient time was allowed to view the time course of the treatment effect before lights-on (6 hours post-treatment). Compounds were suspended in sterile 0.25% or 0.5% methylcellulose (1-2 ml/kg). Treatments were administered orally as a bolus.\nA parallel group study design was employed. […]"}, "[2]": {"settings": "cumulative nonREM sleep defined in minutes, in min"}, "[3]": {"settings": "sleep bout length defined in minutes"}},
  "data": [
    {"smiles": "C[N+]1(C)CCC(OC(=O)C(c2ccccc2)c2ccccc2)CC1", "note": "[4-DAMP methiodide]", "values": [
      {"measurement": "Ki", "setting": "[1]", "value": 0.27, "unit": "nM"}
    ]},
    {"smiles": "CC(C)(CN1CCN(c2noc3ccccc23)CC1)C(=O)O", "note": "[Compound 1]", "values": [
      {"measurement": "MAXIMUM NREM SLEEP CUMULATION 1 mg/kg", "setting": "male Wistar rats; 1 mg/kg oral at CT-18, cumulative nonREM sleep defined in minutes, in min", "value": 20},
      {"measurement": "LONGEST UNINTERRUPTED SLEEP BOUT 1 mg/kg", "setting": "male Wistar rats; 1 mg/kg oral at CT-18, sleep bout length defined in minutes", "value": 6.0},
      {"measurement": "MAXIMUM NREM SLEEP CUMULATION 3 mg/kg", "setting": "male Wistar rats; [2]", "value": 16},
      {"measurement": "LONGEST UNINTERRUPTED SLEEP BOUT 3 mg/kg", "setting": "male Wistar rats; [3]", "value": 9.3},
      {"measurement": "MAXIMUM NREM SLEEP CUMULATION 10 mg/kg", "setting": "male Wistar rats; [2]", "value": 26},
      {"measurement": "LONGEST UNINTERRUPTED SLEEP BOUT 10 mg/kg", "setting": "male Wistar rats; [3]", "value": 14.4},
      {"measurement": "MAXIMUM NREM SLEEP CUMULATION 30 mg/kg", "setting": "male Wistar rats; [2]", "value": 50},
      {"measurement": "LONGEST UNINTERRUPTED SLEEP BOUT 30 mg/kg", "setting": "male Wistar rats; [3]", "value": 16.2}
    ]},
    {"smiles": "CC(C)(CN1CCN(c2noc3ccccc23)CC1)C(=O)NS(C)(=O)=O", "note": "[Compound 3]", "values": [
      {"measurement": "MAXIMUM NREM SLEEP CUMULATION 10 mg/kg", "setting": "male Wistar rats; [2]", "value": 25},
      {"measurement": "LONGEST UNINTERRUPTED SLEEP BOUT 10 mg/kg", "setting": "male Wistar rats; [3]", "value": 5.2},
      {"measurement": "MAXIMUM NREM SLEEP CUMULATION 30 mg/kg", "setting": "male Wistar rats; [2]", "value": 27},
      {"measurement": "LONGEST UNINTERRUPTED SLEEP BOUT 30 mg/kg", "setting": "male Wistar rats; [3]", "value": 12.3}
    ]},
    {"smiles": "O=C(O)CCN1CCN(c2noc3ccccc23)CC1", "note": "[Compound 4]", "values": [
      {"measurement": "MAXIMUM NREM SLEEP CUMULATION 10 mg/kg", "setting": "male Wistar rats; [2]", "value": 27},
      {"measurement": "LONGEST UNINTERRUPTED SLEEP BOUT 10 mg/kg", "setting": "male Wistar rats; [3]", "value": 9.9}
    ]},
    {"smiles": "O=C(O)C1(CN2CCN(c3noc4ccccc34)CC2)CC1", "note": "[Compound 5]", "values": [
      {"measurement": "MAXIMUM NREM SLEEP CUMULATION 3 mg/kg", "setting": "male Wistar rats; [2]", "value": 40},
      {"measurement": "LONGEST UNINTERRUPTED SLEEP BOUT 3 mg/kg", "setting": "male Wistar rats; [3]", "value": 3.0},
      {"measurement": "MAXIMUM NREM SLEEP CUMULATION 10 mg/kg", "setting": "male Wistar rats; [2]", "value": 37},
      {"measurement": "LONGEST UNINTERRUPTED SLEEP BOUT 10 mg/kg", "setting": "male Wistar rats; [3]", "value": 5.1},
      {"measurement": "MAXIMUM NREM SLEEP CUMULATION 30 mg/kg", "setting": "male Wistar rats; [2]", "value": 45},
      {"measurement": "LONGEST UNINTERRUPTED SLEEP BOUT 30 mg/kg", "setting": "male Wistar rats; [3]", "value": 7.2}
    ]},
    {"smiles": "CC(C)(CN1CCN(c2noc3ccc(F)cc23)CC1)C(=O)O", "note": "[Compound 6]", "values": [
      {"measurement": "MAXIMUM NREM SLEEP CUMULATION 10 mg/kg", "setting": "male Wistar rats; [2]", "value": 18},
      {"measurement": "LONGEST UNINTERRUPTED SLEEP BOUT 10 mg/kg", "setting": "male Wistar rats; [3]", "value": 9.8},
      {"measurement": "MAXIMUM NREM SLEEP CUMULATION 30 mg/kg", "setting": "male Wistar rats; [2]", "value": 26},
      {"measurement": "LONGEST UNINTERRUPTED SLEEP BOUT 30 mg/kg", "setting": "male Wistar rats; [3]", "value": 13.5}
    ]},
    {"smiles": "COc1ccc2onc(N3CCN(CC(C)(C)C(=O)O)CC3)c2c1", "note": "[Compound 7]", "values": [
      {"measurement": "MAXIMUM NREM SLEEP CUMULATION 10 mg/kg", "setting": "male Wistar rats; [2]", "value": 6},
      {"measurement": "LONGEST UNINTERRUPTED SLEEP BOUT 10 mg/kg", "setting": "male Wistar rats; [3]", "value": "−2.5"}
    ]},
    {"smiles": "Cc1ccc2onc(N3CCN(CC(C)(C)C(=O)O)CC3)c2c1", "note": "[Compound 8]", "values": [
      {"measurement": "MAXIMUM NREM SLEEP CUMULATION 3 mg/kg", "setting": "male Wistar rats; [2]", "value": 15},
      {"measurement": "LONGEST UNINTERRUPTED SLEEP BOUT 3 mg/kg", "setting": "male Wistar rats; [3]", "value": 4.8},
      {"measurement": "MAXIMUM NREM SLEEP CUMULATION 10 mg/kg", "setting": "male Wistar rats; [2]", "value": 29},
      {"measurement": "LONGEST UNINTERRUPTED SLEEP BOUT 10 mg/kg", "setting": "male Wistar rats; [3]", "value": 8.6},
      {"measurement": "MAXIMUM NREM SLEEP CUMULATION 30 mg/kg", "setting": "male Wistar rats; [2]", "value": 37},
      {"measurement": "LONGEST UNINTERRUPTED SLEEP BOUT 30 mg/kg", "setting": "male Wistar rats; [3]", "value": 14.3}
    ]},
    {"smiles": "Cc1ccc2c(N3CCN(CC(C)(C)C(=O)O)CC3)noc2c1", "note": "[Compound 9]", "values": [
      {"measurement": "MAXIMUM NREM SLEEP CUMULATION 3 mg/kg", "setting": "male Wistar rats; [2]", "value": 24},
      {"measurement": "LONGEST UNINTERRUPTED SLEEP BOUT 3 mg/kg", "setting": "male Wistar rats; [3]", "value": 13.6},
      {"measurement": "MAXIMUM NREM SLEEP CUMULATION 10 mg/kg", "setting": "male Wistar rats; [2]", "value": 29},
      {"measurement": "LONGEST UNINTERRUPTED SLEEP BOUT 10 mg/kg", "setting": "male Wistar rats; [3]", "value": 12.9}
    ]},
    {"smiles": "O=C(O)CCCN1CCN(c2noc3ccccc23)CC1", "note": "[Compound 10]", "values": [
      {"measurement": "MAXIMUM NREM SLEEP CUMULATION 10 mg/kg", "setting": "male Wistar rats; [2]", "value": 22},
      {"measurement": "LONGEST UNINTERRUPTED SLEEP BOUT 10 mg/kg", "setting": "male Wistar rats; [3]", "value": 10.7},
      {"measurement": "MAXIMUM NREM SLEEP CUMULATION 30 mg/kg", "setting": "male Wistar rats; [2]", "value": 24},
      {"measurement": "LONGEST UNINTERRUPTED SLEEP BOUT 30 mg/kg", "setting": "male Wistar rats; [3]", "value": 9.9}
    ]},
    {"smiles": "Cc1ccc2onc(N3CCN(CCC(=O)O)CC3)c2c1", "note": "[Compound 12]", "values": [
      {"measurement": "MAXIMUM NREM SLEEP CUMULATION 10 mg/kg", "setting": "male Wistar rats; [2]", "value": 16},
      {"measurement": "LONGEST UNINTERRUPTED SLEEP BOUT 10 mg/kg", "setting": "male Wistar rats; [3]", "value": 7.3}
    ]},
    {"smiles": "Cc1ccc2onc(N3CCN(CCCC(=O)O)CC3)c2c1", "note": "[Compound 13]", "values": [
      {"measurement": "MAXIMUM NREM SLEEP CUMULATION 10 mg/kg", "setting": "male Wistar rats; [2]", "value": 7},
      {"measurement": "LONGEST UNINTERRUPTED SLEEP BOUT 10 mg/kg", "setting": "male Wistar rats; [3]", "value": "−5.6"}
    ]}
  ]
}
